# Reference: patent US8987209B2, “N-carboxyalkyl-auristatin and the use thereof” (Seattle Genetics, Inc., priority 2010, dated 2015)
# Square brackets hold non-standard residues; d marks the D form. Peptide text beside a SMILES is read from it. * marks the point of attachment. NMeVal(N-(CH2)3COOH) = CC(C)[C@@H](C(=O)*)N(C)CCCC(=O)O; Dolaproine = CO[C@@H]([C@@H]1CCCN1)[C@@H](C)C(=O)O; Dil = CC[C@H](C)[C@H](NC)[C@@H](CC(=O)O)OC; X3 = CC(C)[C@@H](C(=O)*)N(C)CCCCCC(=O)O; NMe(benzyl) = CN(Cc1ccccc1)*; X4 = C1C2CC3CC1CC(CO*)(C2)C3; X6 = C1C2CC3CC1CC(O*)(C2)C3; X2 = c1ccc2c(CO*)cccc2c1; NHBn = c1ccc(CN*)cc1; OBn = c1ccc(CO*)cc1; OtBu = CC(C)(C)O*
# Key:
# HT-29 wt cell line = test: Anti-proliferative effect on HT-29 wt cell line (MTT assay); format: cell-based, human; settings: Homo sapiens, HT-29 wt cells, incubation 48 to 96 hours, medium with 10% FCS
# Description: B-2. Determination of Anti-proliferative Effects of HT-29 wt Cell Line:
# After 18 hours the seed medium was replaced by a fresh medium with 10% FCS. The treatment started with measuring out the respective test substance. The dose-response curves were determined of the investigative substances with a concentration of 10^−5 M to 10^−14 M (1:10 dilutions). Incubation times of between 48 hours and 96 hours were chosen. The proliferation was detected by means of the MTT assay (ATCC, Manassas, Va., USA, catalogue no. 30-1010K). After completion of selected incubation period the MTT reagent was incubated with the cells for 4 hours before lysis occurred over night by measuring out the detergent. The created stain was detected at 570 nm. The proliferation of the cells, which were treated identically to the other cells but without the test substance, was defined as the 100% value. The data obtained from this test represent triple determinations and at least two experiments had been carried out independently of each other.
# [1] = test system: human renal carcinoma cell line 786-0; test: Anti-proliferative effect on renal cell carcinoma 786-0 cell line (MTT assay); format: cell-based; settings: Homo sapiens, 786-0 cells, incubation 48 to 96 hours, serum free medium or 2% FCS
# Description: B-1. Determination of Anti-proliferative Effects of Renal Cell Carcinoma 786-0 Cell Line:
# A defined number of cells of the human renal carcinoma cell line 786-0 were cultured in a 96 well micro titer plate in rich medium (2500 or 7.000 cells/well) and then incubated over night at 37° C./5% CO2. After 18 hours the seed medium was replaced by a serum free medium or medium with 2% FCS. The treatment began with measuring out the respective test substances in varying concentrations (10^−5 M to 10^−14 M). Incubation times of between 48 hours and 96 hours were chosen. The proliferation was determined by means of the MTT assay (ATCC, Manassas, Va., USA, catalogue no. 30-1010K). After completion of incubation period the MTT reagent was incubated with the cells for 4 hours before lysis occurred over night by measuring out the detergent. The created stain was detected at 570 nm. The proliferation of the cells, which were treated identically to the other cells but without the test substance was defined as the 100% value. The data obtained from this test represent triple determinations and at least two experiments had been carried out independently of each other.
smiles,measurement,setting,value
"CC[C@H](C)[C@@H]([C@@H](CC(=O)N1CCC[C@H]1[C@H](OC)[C@@H](C)C(=O)N[C@@H](Cc1ccccc1)C(=O)OCc1cccc2ccccc12)OC)N(C)C(=O)[C@@H](NC(=O)[C@H](C(C)C)N(C)CCCC(=O)O)C(C)C [Example 1, N-(3-carboxypropyl)-N-methyl-L-valyl-N-[(3R,4S,5S)-3-methoxy-1-{(2S)-2-[(1R,2R)-1-methoxy-2-methyl-3-{[(2S)-1-(1-naphthylmethoxy)-1-oxo-3-phenylpropane-2-yl]amino}-3-oxopropyl]pyrrolidin-1-yl}-5-methyl-1-oxoheptan-4-yl]-N-methyl-L-valinamide] ({NMeVal(N-(CH2)3COOH)}-V[Dil][Dolaproine]F-X2)",IC50,HT-29 wt cell line,0.1 nM
same,IC50,[1],1.1 nM
"CC[C@H](C)[C@@H]([C@@H](CC(=O)N1CCC[C@H]1[C@H](OC)[C@@H](C)C(=O)N[C@@H](Cc1ccccc1)C(=O)OC12CC3CC(CC(C3)C1)C2)OC)N(C)C(=O)[C@@H](NC(=O)[C@H](C(C)C)N(C)CCCC(=O)O)C(C)C [Example 2, N-(3-carboxypropyl)-N-methyl-L-valyl-N-[(3R,4S,5S)-1-{(2S)-2-[(1R,2R)-3-{[(2S)-1-(adamantane-1-yloxyy)-1-oxo-3-phenylpropane-2-yl]amino}-1-methoxy-2-methyl-3-oxopropyl]pyrrolidin-1-yl}-3-methoxy-5-methyl-1-oxoheptan-4-yl]-N-methyl-L-valinamide] ({NMeVal(N-(CH2)3COOH)}-V[Dil][Dolaproine]F-X6)",IC50,[1],2.2 nM
"CC[C@H](C)[C@@H]([C@@H](CC(=O)N1CCC[C@H]1[C@H](OC)[C@@H](C)C(=O)N[C@@H](Cc1ccccc1)C(=O)OCC12CC3CC(CC(C3)C1)C2)OC)N(C)C(=O)[C@@H](NC(=O)[C@H](C(C)C)N(C)CCCC(=O)O)C(C)C [Example 3, N-(3-carboxypropyl)-N-methyl-L-valyl-N-[(3R,4S,5S)-1-{(2S)-2-[(1R,2R)-3-{[(2S)-1-(adamantane-1-ylmethoxy)-1-oxo-3-phenylpropane-2-yl]amino}-1-methoxy-2-methyl-3-oxopropyl]pyrrolidin-1-yl}-3-methoxy-5-methyl-1-oxoheptan-4-yl]-N-methyl-L-valinamide] ({NMeVal(N-(CH2)3COOH)}-V[Dil][Dolaproine]F-X4)",IC50,[1],0.7 nM
"CC[C@H](C)[C@@H]([C@@H](CC(=O)N1CCC[C@H]1[C@H](OC)[C@@H](C)C(=O)N[C@H](COCc1ccccc1)Cc1ccccc1)OC)N(C)C(=O)[C@@H](NC(=O)[C@H](C(C)C)N(C)CCCC(=O)O)C(C)C [Example 4, N-(3-carboxypropyl)-N-methyl-L-valyl-N-[(3R,4S,5S)-1-{(2S)-2-[(1R,2R)-3-{[(2S)-1-(benzyloxy)-3-phenylpropane-2-yl]amino}-1-methoxy-2-methyl-3-oxopropyl]pyrrolidin-1-yl}-3-methoxy-5-methyl-1-oxoheptan-4-yl]-N-methyl-L-valinamide]",IC50,HT-29 wt cell line,0.1 nM
same,IC50,[1],0.8 nM
"CC[C@H](C)[C@@H]([C@@H](CC(=O)N1CCC[C@H]1[C@H](OC)[C@@H](C)C(=O)N[C@@H](Cc1ccccc1)C(=O)OCc1ccccc1)OC)N(C)C(=O)[C@@H](NC(=O)[C@H](C(C)C)N(C)CCCC(=O)O)C(C)C [Example 5, N-(3-carboxypropyl)-N-methyl-L-valyl-N-[(3R,4S,5S)-1-{(2S)-2-[(1R,2R)-3-{[(2S)-1-(benzyloxy)-1-oxo-3-phenylpropan-2-yl]amino}-1-methoxy-2-methyl-3-oxopropyl]pyrrolidin-1-yl}-3-methoxy-5-methyl-1-oxoheptan-4-yl]-N-methyl-L-valinamide] ({NMeVal(N-(CH2)3COOH)}-V[Dil][Dolaproine]F-OBn)",IC50,[1],0.2 nM
"CC[C@H](C)[C@@H]([C@@H](CC(=O)N1CCC[C@H]1[C@H](OC)[C@@H](C)C(=O)N[C@H](C(=O)OCc1ccccc1)[C@@H](C)c1ccccc1)OC)N(C)C(=O)[C@@H](NC(=O)[C@H](C(C)C)N(C)CCCC(=O)O)C(C)C [Example 6, N-(3-carboxypropyl)-N-methyl-L-valyl-N-[(3R,4S,5S)-1-{(2S)-2-[(1R,2R)-3-{[(2S,3S)-1-(benzyloxy)-1-oxo-3-phenylbutane-2-yl]amino}-1-methoxy-2-methyl-3-oxopropyl]pyrrolidin-1-yl}-3-methoxy-5-methyl-1-oxoheptan-4-yl]-N-methyl-L-valinamide]",IC50,HT-29 wt cell line,0.4 nM
same,IC50,[1],1.1 nM
"CC[C@H](C)[C@@H]([C@@H](CC(=O)N1CCC[C@H]1[C@H](OC)[C@@H](C)C(=O)N[C@@H](Cc1ccccc1)C(=O)N(C)Cc1ccccc1)OC)N(C)C(=O)[C@@H](NC(=O)[C@H](C(C)C)N(C)CCCC(=O)O)C(C)C [Example 9, N-(3-carboxypropyl)-N-methyl-L-valyl-N-[(3R,4S,5S)-1-{(2S)-2-[(1R,2R)-3-({(2S)-1-[benzyl(methyl)amino]-1-oxo-3-phenylpropane-2-yl}amino)-1-methoxy-2-methyl-3-oxopropyl]pyrrolidin-1-yl}-3-methoxy-5-methyl-1-oxoheptan-4-yl]-N-methyl-L-valinamide] ({NMeVal(N-(CH2)3COOH)}-V[Dil][Dolaproine]F-{NMe(benzyl)})",IC50,HT-29 wt cell line,4.4 nM
same,IC50,[1],53 nM
"CC[C@H](C)[C@@H]([C@@H](CC(=O)N1CCC[C@H]1[C@H](OC)[C@@H](C)C(=O)N[C@@]1(C(=O)OCc2ccccc2)C[C@@H]1c1ccccc1)OC)N(C)C(=O)[C@@H](NC(=O)[C@H](C(C)C)N(C)CCCC(=O)O)C(C)C [Example 10, N-(3-carboxypropyl)-N-methyl-L-valyl-N-[(3R,4S,5S)-1-{(2S)-2-[(1R,2R)-3-({(1S,2R)-1-[(benzyloxy)carbonyl]-2-phenylcyclopropyl}amino)-1-methoxy-2-methyl-3-oxopropyl]pyrrolidin-1-yl}-3-methoxy-5-methyl-1-oxoheptan-4-yl]-N-methyl-L-valinamide]",IC50,[1],81 nM
"CC[C@H](C)[C@@H]([C@@H](CC(=O)N1CCC[C@H]1[C@H](OC)[C@@H](C)C(=O)N[C@@H](Cc1ccccc1)C(=O)NCc1ccccc1)OC)N(C)C(=O)[C@@H](NC(=O)[C@H](C(C)C)N(C)CCCC(=O)O)C(C)C [Example 15, N-(3-carboxypropyl)-N-methyl-L-valyl-N-[(3R,4S,5S)-1-{(2S)-2-[(1R,2R)-3-{[(2S)-1-(benzylamino)-1-oxo-3-phenylpropan-2-yl]amino}-1-methoxy-2-methyl-3-oxopropyl]pyrrolidin-1-yl}-3-methoxy-5-methyl-1-oxoheptan-4-yl]-N-methyl-L-valinamide] ({NMeVal(N-(CH2)3COOH)}-V[Dil][Dolaproine]F-NHBn)",IC50,[1],0.9 nM
"CC[C@H](C)[C@@H]([C@@H](CC(=O)N1CCC[C@H]1[C@H](OC)[C@@H](C)C(=O)N[C@@H](Cc1c[nH]c2ccccc12)C(=O)NCc1ccccc1)OC)N(C)C(=O)[C@@H](NC(=O)[C@H](C(C)C)N(C)CCCC(=O)O)C(C)C [Example 16, N-(3-carboxypropyl)-N-methyl-L-valyl-N-[(3R,4S,5S)-1-{(2S)-2-[(1R,2R)-3-{[(2S)-1-(benzyl-amino)-3-(1H-indol-3-yl)-1-oxopropane-2-yl]amino}-1-methoxy-2-methyl-3-oxopropyl]pyrrolidin-1-yl}-3-methoxy-5-methyl-1-oxoheptan-4-yl]-N-methyl-L-valinamide] ({NMeVal(N-(CH2)3COOH)}-V[Dil][Dolaproine]W-NHBn)",IC50,HT-29 wt cell line,0.1 nM
same,IC50,[1],12 nM
"CC[C@H](C)[C@@H]([C@@H](CC(=O)N1CCC[C@H]1[C@H](OC)[C@@H](C)C(=O)N[C@@H](Cc1ccccc1)C(=O)OC(C)(C)C)OC)N(C)C(=O)[C@@H](NC(=O)[C@H](C(C)C)N(C)CCCC(=O)O)C(C)C [Example 20, N-(3-carboxypropyl)-N-methyl-L-valyl-N-[(3R,4S,5S)-1-{(2S)-2-[(1R,2R)-3-{[(2S)-1-tert.-butoxy-1-oxo-3-phenylpropane2-yl]amino}-1-methoxy-2-methyl-3-oxopropyl]pyrrolidin-1-yl}-3-methoxy-5-methyl-1-oxoheptan-4-yl]-N-methyl-L-valinamide] ({NMeVal(N-(CH2)3COOH)}-V[Dil][Dolaproine]F-OtBu)",IC50,[1],0.3 nM
"CC[C@H](C)[C@@H]([C@@H](CC(=O)N1CCC[C@H]1[C@H](OC)[C@@H](C)C(=O)N[C@@H](Cc1c[nH]c2ccccc12)C(=O)NCc1ccccc1)OC)N(C)C(=O)[C@@H](NC(=O)[C@H](C(C)C)N(C)CCCCCC(=O)O)C(C)C [Example 28, N-(5-carboxypentyl)-N-methyl-L-valyl-N-[(3R,4S,5S)-1-{(2S)-2-[(1R,2R)-3-{[(2S)-1-(benzylamino)-3-(1H-indol-3-yl)-1-oxopropane-2-yl]amino}-1-methoxy-2-methyl-3-oxopropyl]pyrrolidin-1-yl}-3-methoxy-5-methyl-1-oxoheptan-4-yl]-N-methyl-L-valinamide] (X3-V[Dil][Dolaproine]W-NHBn)",IC50,HT-29 wt cell line,1.3 nM
